Values quoted from earlier work, collected in patent US10114931B2, “Pharmaceutical platform technology for the development of natural products” (Sinoveda Canada Inc., priority 2007, dated 2018).
Like-named read-outs stand apart in the source and are kept apart here.

Columns and labels:
[1] = in vivo
osteoblast formation = conditions: compared with genistein
[2] = in vivo; remark: listed apart in the source
[3] = test system: bone loss in early postmenopausal women; conditions: 54 mg/day, given orally for a year
[4] = Yan et al., 2008

## C[C@@H]1O[C@@H](OC[C@H]2O[C@@H](Oc3c(-c4ccc(O)c(O)c4)oc4cc(O)cc(O)c4c3=O)[C@H](O)[C@@H](O)[C@@H]2O)[C@H](O)[C@H](O)[C@H]1O [Rutin]
[1]
  Detection in the blood stream: not detected

## O=c1c(-c2ccc(O)cc2)coc2cc(O)ccc12 [daidzein]
Osteoblast formation
  Potency in osteoblast formation in vitro: more potent
[2]
  Bioavailability: less than 5%

## O=c1c(-c2ccc(O)cc2)coc2cc(O)cc(O)c12 [genistein]
[3]
  Efficacy compared with hormone replacement therapy: as effective as hormone replacement therapy

## CCC/C=C1\OC(=O)C2=C1CCC=C2 [z-ligustilide]
[4]
  Bioavailability: less than 3%
